Test results as given in US20230144824A1, “1H-PYRAZOLO[4,3-d]PYRIMIDINE COMPOUNDS AS TOLL-LIKE RECEPTOR 7 (TLR7) AGONISTS” (BRISTOL-MYERS SQUIBB COMPANY, priority 2020, published 2023).

These compounds were tested against T1, human TLR7 (Homo sapiens, UniProt Q9NYK1) (assay: Human TLR7 agonist activity assay (HEK-Blue TLR7 SEAP reporter)). Conditions: HEK-Blue TLR7 cells, 18 h treatment, average where assay performed multiple times, read-out: hTLR7 Agonism EC50.
T1 construct: host or cells: HEK-Blue TLR7 cells (engineered human embryonic kidney cells)
T1 sequence (Q9NYK1 27-1049): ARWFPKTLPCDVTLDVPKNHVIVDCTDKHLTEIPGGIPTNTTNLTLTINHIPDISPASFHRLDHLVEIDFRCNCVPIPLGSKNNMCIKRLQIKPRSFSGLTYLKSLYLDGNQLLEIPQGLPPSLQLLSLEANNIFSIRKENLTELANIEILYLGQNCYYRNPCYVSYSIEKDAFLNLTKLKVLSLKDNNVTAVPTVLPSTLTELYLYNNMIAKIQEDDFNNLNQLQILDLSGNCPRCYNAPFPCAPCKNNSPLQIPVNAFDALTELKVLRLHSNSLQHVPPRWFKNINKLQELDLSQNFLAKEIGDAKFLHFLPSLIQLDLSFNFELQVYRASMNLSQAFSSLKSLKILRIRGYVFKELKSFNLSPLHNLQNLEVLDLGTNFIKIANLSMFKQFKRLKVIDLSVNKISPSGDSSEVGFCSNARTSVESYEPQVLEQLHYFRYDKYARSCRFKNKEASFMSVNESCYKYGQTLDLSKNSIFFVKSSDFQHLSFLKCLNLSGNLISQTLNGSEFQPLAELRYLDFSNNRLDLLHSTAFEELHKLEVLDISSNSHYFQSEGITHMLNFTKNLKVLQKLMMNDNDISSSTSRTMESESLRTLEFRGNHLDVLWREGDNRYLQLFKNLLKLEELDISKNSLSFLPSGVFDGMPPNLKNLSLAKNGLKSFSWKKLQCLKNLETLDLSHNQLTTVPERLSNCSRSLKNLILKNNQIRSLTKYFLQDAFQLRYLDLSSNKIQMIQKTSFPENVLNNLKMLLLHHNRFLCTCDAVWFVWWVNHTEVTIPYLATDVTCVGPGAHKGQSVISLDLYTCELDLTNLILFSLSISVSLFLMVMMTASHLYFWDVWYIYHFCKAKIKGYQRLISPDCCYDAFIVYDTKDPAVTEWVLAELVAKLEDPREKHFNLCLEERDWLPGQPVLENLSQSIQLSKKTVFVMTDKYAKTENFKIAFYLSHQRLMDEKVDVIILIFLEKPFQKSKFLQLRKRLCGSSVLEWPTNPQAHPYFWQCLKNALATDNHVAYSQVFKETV
Type: cell-based
Protocol: This procedure describes a method for assaying human TLR7 (hTLR7) agonist activity of the compounds disclosed in this specification.
HEK-Blue™ TLR7 cells were added to each well of a 384-well tissue-culture plate (15,000 cells per well) and incubated 16-18 h at 37° C., 5% CO2. Compounds (100 nl) were dispensed into wells containing the HEK-Blue™ TLR cells and the treated cells were incubated at 37° C., 5% CO2. After 18 h treatment ten microliters of freshly-prepared Quanti-Blue™ reagent (Invivogen) was added to each well, incubated for 30 min (37° C., 5% CO2) and SEAP levels measured using an Envision plate reader (OD=620 nm). The half maximal effective concentration values (EC50; compound concentration which induced a response halfway between the assay baseline and maximum) were calculated.

EC50 [nM]	SMILES
21.9	CCCCNc1nc(N)nc2cnn(Cc3cnc(C4CCN(C5CCOCC5)CC4)cc3OC)c12 [Compound 219, N7-butyl-1-({4-methoxy-6-[1-(oxan-4-yl)piperidin-4-yl]pyridin-3-yl}methyl)-1H-pyrazolo[4,3-d]pyrimidine-5,7-diamine]
199	COc1cc(C2CCN(C(=O)CCN(C)C)CC2)cnc1Cn1ncc2nc(N)nc(NCC3CC4(CC4)C3)c21 [Compound 155, 1-{4-[6-({5-amino-7-[({spiro[2.3]hexan-5-yl}methyl)amino]-1H-pyrazolo[4,3-d]pyrimidin-1-yl}methyl)-5-methoxypyridin-3-yl]piperidin-1-yl}-3-(dimethylamino)propan-1-one]
496	CCC[C@@H](CCO)Nc1nc(N)nc2cnn(Cc3ccc(C4CN(C(=O)CCN(C)C)CCN4)cc3OC)c12 (stereo partly drawn) [Compound 202, 1-(3-{4-[(5-amino-7-{[(3S)-1-hydroxyhexan-3-yl]amino}-1H-pyrazolo[4,3-d]pyrimidin-1-yl)methyl]-3-methoxyphenyl}piperazin-1-yl)-3-(dimethylamino)propan-1-one]
80.1	CCCCNc1nc(N)nc2cnn(Cc3ncc(C4CCN(Cc5ncn(C)n5)CC4)cc3OC)c12 [Compound 217, N7-butyl-1-[(3-methoxy-5-{1-[(1-methyl-1H-1,2,4-triazol-3-yl)methyl]piperidin-4-yl}pyridin-2-yl)methyl]-1H-pyrazolo[4,3-d]pyrimidine-5,7-diamine]
436	CCC[C@@H](CCO)Nc1nc(N)nc2c(C)nn(Cc3cnc(C4CCN(CC#N)CC4)cc3OC)c12 [Compound 220, 2-(4-{5-[(5-amino-7-{[(3S)-1-hydroxyhexan-3-yl]amino}-3-methyl-1H-pyrazolo[4,3-d]pyrimidin-1-yl)methyl]-4-methoxypyridin-2-yl}piperidin-1-yl)acetonitrile]
256	CCC[C@@H](CCO)Nc1nc(N)nc2cnn(Cc3ncc(C4CCCNC4)cc3OC)c12 (single isomer, unassigned) [Compound 201]
6.5	CCC[C@@H](CCO)Nc1nc(N)nc2cnn(Cc3ncc(C4CCN(C5CCOC5)CC4)cc3OC)c12 (single isomer, unassigned) [Compound 212]
25.9	CCCCNc1nc(N)nc2cnn(Cc3ncc(C4CCN(CC5CCOCC5)CC4)cc3OC)c12 [Compound 218, N7-butyl-1-[(3-methoxy-5-{1-[(oxan-4-yl)methyl]piperidin-4-yl}pyridin-2-yl)methyl]-1H-pyrazolo[4,3-d]pyrimidine-5,7-diamine]
123	CCC[C@@H](CCO)Nc1nc(N)nc2cnn(Cc3ncc(C4CCN(C5CCOC5)CC4)cc3OC)c12 (single isomer, unassigned) [Compound 211]
111	COc1cc(C2CCNCC2)cnc1Cn1ncc2nc(N)nc(NCC3CC4(CC4)C3)c21 [Compound 152, 1-{[3-methoxy-5-(piperidin-4-yl)pyridin-2-yl]methyl}-N7-({spiro[2.3]hexan-5-yl}methyl)-1H-pyrazolo[4,3-d]pyrimidine-5,7-diamine]
86.8	COc1cc(C2CCN(CCO)CC2)cnc1Cn1ncc2nc(N)nc(NCC3CC4(CC4)C3)c21 [Compound 153, 2-{4-[6-({5-amino-7-[({spiro[2.3]hexan-5-yl}methyl)amino]-1H-pyrazolo[4,3-d]pyrimidin-1-yl}methyl)-5-methoxypyridin-3-yl]piperidin-1-yl}ethan-1-ol]
9.05	CCC[C@@H](CCO)Nc1nc(N)nc2cnn(Cc3ncc(C4CCN(C5CCOC5)CC4)cc3OC)c12 (stereo partly drawn) [Compound 210, (3S)-3-{[5-amino-1-({3-methoxy-5-[1-(oxolan-3-yl)piperidin-4-yl]pyridin-2-yl}methyl)-1H-pyrazolo[4,3-d]pyrimidin-7-yl]amino}hexan-1-ol]
40.9	COc1cc(C2CCN(C(C)C)CC2)cnc1Cn1ncc2nc(N)nc(NCC3CC4(CC4)C3)c21 [Compound 156, 1-({3-methoxy-5-[1-(propan-2-yl)piperidin-4-yl]pyridin-2-yl}methyl)-N7-({spiro[2.3]hexan-5-yl}methyl)-1H-pyrazolo[4,3-d]pyrimidine-5,7-diamine]
25.1	CCC[C@@H](CCO)Nc1nc(N)nc2cnn(Cc3ncc(C4CCN(Cc5ncco5)CC4)cc3OC)c12 [Compound 207, (3S)-3-({5-amino-1-[(3-methoxy-5-{1-[(1,3-oxazol-2-yl)methyl]piperidin-4-yl}pyridin-2-yl)methyl]-1H-pyrazolo[4,3-d]pyrimidin-7-yl}amino)hexan-1-ol]
101	COc1cc(C2CCN(CCN(C)C)CC2)cnc1Cn1ncc2nc(N)nc(NCc3cc(C)on3)c21 [Compound 145, 1-[(5-{1-[2-(dimethylamino)ethyl]piperidin-4-yl}-3-methoxypyridin-2-yl)methyl]-N7-[(5-methyl-1,2-oxazol-3-yl)methyl]-1H-pyrazolo[4,3-d]pyrimidine-5,7-diamine]
57.1	CCC[C@@H](CCO)Nc1nc(N)nc2c(C)nn(Cc3cnc(C4CCNCC4)cc3OC)c12 [Compound 221, (3S)-3-[(5-amino-1-{[4-methoxy-6-(piperidin-4-yl)pyridin-3-yl]methyl}-3-methyl-1H-pyrazolo[4,3-d]pyrimidin-7-yl)amino]hexan-1-ol]
12.2	CCCCNc1nc(N)nc2cnn(Cc3ccc(C4CCN(C(=O)CC(C)(C)O)CC4)cc3OC)c12 [Compound 162, 1-[4-(4-{[5-amino-7-(butylamino)-1H-pyrazolo[4,3-d]pyrimidin-1-yl]methyl}-3-methoxyphenyl)piperidin-1-yl]-3-hydroxy-3-methylbutan-1-one]
119	CCCCNc1nc(N)nc2cnn(Cc3ncc(C4CCN(C(CC)CC)CC4)cc3OC)c12 [Compound 130, N7-butyl-1-({3-methoxy-5-[1-(pentan-3-yl)piperidin-4-yl]pyridin-2-yl}methyl)-1H-pyrazolo[4,3-d]pyrimidine-5,7-diamine]
168	CCC[C@@H](CCO)Nc1nc(N)nc2cnn(Cc3ncc(C4CCN(C(=O)CN5CCOCC5)CC4)cc3OC)c12 [Compound 208, 1-(4-{6-[(5-amino-7-{[(3S)-1-hydroxyhexan-3-yl]amino}-1H-pyrazolo[4,3-d]pyrimidin-1-yl)methyl]-5-methoxypyridin-3-yl}piperidin-1-yl)-2-(morpholin-4-yl)ethan-1-one]
